Test results: PubChem BioAssay (NCI)
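1) Cells in 96-well plates. 2) Compound, 48 h, 5 concentrations. 3) Linear interpolation between surrounding doses. 4) Unreached endpoint = highest concentration. TGI is the concentration that stops growth completely.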

Columns and labels:
Assay in all cases: NCI anticancer screen, dose series, 48 h
SNB-19 CNS = test system: SNB-19 CNS
MDA-N = test system: MDA-N
HOP-62 NSCLC = test system: HOP-62 NSCLC
MDA-MB-435 = test system: MDA-MB-435
SR leukemia = test system: SR leukemia
U251 CNS = test system: U251 CNS
HCT-116 colon = test system: HCT-116 colon
CCRF-CEM leukemia = test system: CCRF-CEM leukemia
K-562 leukemia = test system: K-562 leukemia
CAKI-1 renal = test system: CAKI-1 renal
NCI-H522 lung = test system: NCI-H522 lung
ACHN renal = test system: ACHN renal

| Structure (SMILES) | TGI (SNB-19 CNS) [µM] | TGI (MDA-N) [µM] | TGI (HOP-62 NSCLC) [µM] | TGI (MDA-MB-435) [µM] | TGI (SR leukemia) [µM] | TGI (U251 CNS) [µM] | TGI (HCT-116 colon) [µM] | TGI (CCRF-CEM leukemia) [µM] | TGI (K-562 leukemia) [µM] | TGI (CAKI-1 renal) [µM] | TGI (NCI-H522 lung) [µM] | TGI (ACHN renal) [µM] |
| --- | --- | --- | --- | --- | --- | --- | --- | --- | --- | --- | --- | --- |
| CCOC(=O)c1sc2nc(SC)nc3c2c1NC(=O)CN3c1ccc(F)cc1 | > 100 | > 100 | 33.7 | > 100 | > 100 | > 100 | > 100 | 78.4 | > 100 | > 100 | > 100 | 93.4 |
| CO[P@@]1(=O)O[C@@H](c2ccccc2)[C@H](O)[C@@]1(O)c1ccccc1 | > 100 | > 100 |  | > 100 | 74.7 | > 100 | > 100 | > 100 | > 100 | > 100 | > 100 | > 100 |
| CCn1c2ccccc2c2ccc(C3C4C(=O)N(c5cccc6ccccc56)C(=O)C4ON3C(C(N)=O)c3ccccc3)cc21 (configuration not stated) | > 25 | > 25 | > 25 | > 25 | > 25 | > 25 | > 25 |  | > 25 | 11.3 | > 25 | > 25 |
| Nc1ccc(Oc2ccc(C34CC5C6CC7(c8ccc(Oc9ccc(N)cc9)cc8)CC5C(C3)C(C7)C6C4)cc2)cc1 | > 100 | > 100 | > 100 | > 100 |  | > 100 | > 100 | > 100 | > 100 | > 100 | > 100 | > 100 |
| CCCCCCC(=O)OC[n+]1ccc(-c2c(COC(=O)NC(C)C)c(COC(=O)NC(C)C)c3n2CCC3)cc1 | > 100 |  | > 100 | > 100 | 50.9 | > 100 | > 100 | > 88 | > 100 | 99.4 | > 100 | > 100 |
| CCCCC(CC)C(=O)Oc1ccc(C(=O)c2ccccc2)c(O)c1 (configuration not stated) | > 100 | > 100 | > 100 | > 100 |  | > 100 | > 100 | > 100 | > 100 | > 100 | 98.2 | > 100 |
| Nc1[nH]c(=O)nc2c1cnn2COCCO | > 100 |  |  |  | > 100 | 52.8 | > 100 | > 100 | > 100 | > 100 |  | > 100 |
| CCCCC/C=C\C=C\CCCCCCCCC(=O)OC | > 100 | > 100 | > 100 |  | > 100 | > 100 | > 100 |  | > 100 | > 100 |  | > 100 |
| C/C(=C\[Si](C)(C)c1ccco1)C(C)(O)[C@H](C)O (some centres not stated) | > 100 | > 100 | > 100 | > 100 | > 100 | > 100 | > 100 | > 100 | > 100 | > 100 | 74.4 | > 100 |
| CC(C)CC(N)C(=O)NC(CNC(CCC(N)=O)C(=O)NC(CC(C)C)C(=O)NC(CC(C)C)C(=O)O)Cc1ccc2ccccc2c1 (configuration not stated) | > 10 | > 10 | > 10 | > 10 | > 10 | > 10 | > 10 | > 10 | > 10 | > 10 |  | > 10 |
| CC1CC(C)(O)C2C3(C)CCCC2(COC3=O)C12CCC1(CCOC1=O)O2 (configuration not stated) | > 250 |  | > 250 |  |  | > 250 | > 250 | > 250 | > 250 | > 250 | > 250 |  |
| [O-]c1c2c(nn1-c1ccc(F)cc1)c1ccccc1c[n+]2Cc1ccccc1 | > 100 |  | 32.1 |  | 41.9 | 33.4 | 32.9 | 33.7 | 81.4 | 94.7 | 21.3 | 28 |
| CN(C)CCC(=O)[C@@]1(O)CC[C@H]2[C@@H]3CC=C4C[C@@H](O)CC[C@]4(C)[C@H]3CC[C@@]21C | > 64.8 | 34.5 | 30.6 | 45.5 | 39.4 | 31 | 32.6 | > 55.7 | 48.9 | 34.6 | 25.3 | 29.5 |
| CCCCCCCCCCCCCCCCCCN(C)CC(COC)OP(=O)([O-])OCC[N+](C)(C)C (configuration not stated) | 2.5 | 15.3 | 5.17 | 17.4 | 8.55 | 2.44 | 11.8 | 5.16 | 40.2 | 5.27 | 4.22 | 15.6 |
| CC1(C=O)CC(CCc2ccccc2)NC1Cc1ccc(O)cc1 (configuration not stated) | 28.1 | 32.1 | 36.4 | 34 | 33.9 | 26.5 | 29.6 | 82.7 | 48.1 | 29.3 | 35 | 28.6 |
| Cc1csc2nc(-c3cc([N+](=O)[O-])c(Cl)cc3Cl)c(/C=N/N=C(N)N)n12 | 36.5 |  | 35 | 34.7 | 4.84 | 30.5 | 39.5 | > 100 | 20.4 | 29.8 | 29.4 | 30.9 |
